Experiments:
HBsAg [1] = test: In vivo efficacy study in AAV/HBV mice model, HBsAg content in serum; parameters: species or system C57BL/6 mice; conditions: PO
Excerpt: C57BL/6 mice, 10% HP-β-CD as vehicle, TDF ([…]) as refer compound, the compound of formula (I), and recombinant virus rAAV8-1.3HBV.
The reagents of the present project mainly included QIAamp96 DNA kit and TaqMan® Universal PCR Master Mix, hepatitis B surface antigen test kit.
The instrument included centrifuge (Beckman Allegra X-15R), tissue grinder (QIAGEN-Tissue lyser II) and spectrophotometer (Thermo-NANODROP 1000).
• a) All mice were administrated orally on the day 28 after being injected with virus, the day of administration was designated as day 0. Before administration, serum was collected by submandibular blood sampling for all mice. The mice were administration once a day for four weeks. The detailed dosage regimen was shown in Table 3. • b) Serum was collected by submandibular blood sampling for all mice twice a week, with each sampling volume being approximately 100 μL. The detailed blood sampling time is shown in Table 3. • c) On the day 28, all mice were euthanized and the blood was collected from the heart for serum collection. • d) All serum samples were sent for analysis.
The anti-HBV activity of the test compound in AAV/HBV mice model was evaluated by determining the content of HBsAg in the serum of the mice.

surface antigens = conditions: woodchuck model, single drug; cited from earlier work
HBV-DNA [2] = conditions: woodchuck model, single drug; cited from earlier work
HBV-DNA [3] = test: HBV in vitro test in HepG2.2.15 cells, HBV-DNA by quantitative PCR; type: cell-based; conditions: Hepatitis B virus, 192 h, culture medium collected on day 8, read-out: EC50 against HBV-DNA
Procedure: (§1) 1. Cell Line: HepG2.2.15 Cells
(§2) • Pancreatin (Invitrogen-25300062) • DPBS (Corning-21031CVR) • DMSO (Sigma-D2650-100 mL) • High-throughput DNA purification kit (QIAamp 96 DNA Blood Kit, Qiagen-51162) • Quantitative quick start universal probe reagent (FastStart Universal Probe Master, Roche-04914058001) • Hepatitis B surface antigen quantitative test kit (Autobio, CL0310) 3. Consumables and Instruments: • 96-well cell culture plate (Cornin-3599) • CO2 incubator (HERA-CELL-240) • Optical sealing film (ABI-4311971) • Quantitative PCR 96-well plate (Applied Biosystems-4306737) • Fluorescence quantitative PCR instrument (Applied Biosystems-7500 real time PCR system) Experimental Methods: • 1. HepG2.2.15 cells (4×10^4 cells/well) were seeded to a 96-well plate and cultured overnight at 37° C., 5% CO2. • 2. On the day 2, the compound was diluted to a total of 8 concentrations, with a 3-fold gradient dilution. Different concentrations of compounds were added into the culture wells in duplicate wells. The final concentration of DMSO in the culture medium was 0.5%. 10 μM ETV (Entecavir) was used as a 100% inhibition control; 0.5% DMSO was used as a 0% inhibition control. • 3. […]
(§3) 50 μL of sample and standard were added into a reaction plate respectively, followed by addition of 50 μL of enzyme conjugate into each well. […] Chemoluminescence intensity was determined by an ELISA finally. • 9.

HBsAg [4] = test: HBV in vitro test in HepG2.2.15 cells, hepatitis B surface antigen by ELISA; type: cell-based; conditions: Hepatitis B virus, HepG2.2.15, 192 h, read-out: EC50 against HBsAg
Procedure: as §1, §2, §3

[5] = 10 mg/kg, detection date day 11
[6] = 10 mg/kg, detection date day 14
[7] = 10 mg/kg, detection date day 18
[8] = 10 mg/kg, detection date day 21
[9] = 10 mg/kg, detection date day 25
[10] = 10 mg/kg, detection date day 28
[11] = 10 mg/kg, detection date day -1

With COCCCOc1cc2c(cc1OC)-c1cc(=O)c(C(=O)O)cn1[C@H](C(C)C)C2 [RG7834, reference compound] as the compound, how does the “HBsAg content in mice” value (HBsAg [1]; 10 mg/kg, detection date day 4) read?
The value was 3.54 IU/mL.

What about the “HBsAg content in mice” value (HBsAg [1]; 10 mg/kg, detection date day 7) of the same compound?
The value was 3.58 IU/mL.

What about the “HBsAg content in mice” value (HBsAg [1]; [5]) of the same compound?
The value was 3.70 IU/mL.

What about the “HBsAg content in mice” value (HBsAg [1]; [6]) of the same compound?
Its value is 3.49 IU/mL.

And the “HBsAg content in mice” value (HBsAg [1]; [7])?
Its value is 3.70 IU/mL.

What about the “HBsAg content in mice” value (HBsAg [1]; [8]) of the same compound?
Its value is 3.52 IU/mL.

And the “HBsAg content in mice” value (HBsAg [1]; [9])?
Its value is 3.50 IU/mL.

And the “HBsAg content in mice” value (HBsAg [1]; [10])?
Its value is 3.66 IU/mL.

What about the “HBsAg content in mice” value (HBsAg [1]; [11]) of the same compound?
The value was 4.56 IU/mL.

And the “reduction of surface antigens” value (surface antigens)?
Its value is 2.57 Log.

And the “reduction of HBV-DNA” value (HBV-DNA [2])?
Its value is 1.7 Log.

With COCCCOc1cc2c(cc1OC)-c1cc(=O)c(C(=O)O)cn1[C@H](C(C)(C)C)CO2 [the compound of formula (I)] as the compound, how does the EC50 (HBV-DNA [3]) read?
The EC50 was 2.55 nM.

And the EC50 (HBsAg [4])?
The EC50 was 3.88 nM.

And the “HBsAg content in mice” value (HBsAg [1]; 3 mg/kg, detection date day 4)?
The value was 3.68 IU/mL.

And the “HBsAg content in mice” value (HBsAg [1]; 3 mg/kg, detection date day 7)?
The value was 3.70 IU/mL.

And the “HBsAg content in mice” value (HBsAg [1]; 3 mg/kg, detection date day 11)?
Its value is 3.76 IU/mL.

And the “HBsAg content in mice” value (HBsAg [1]; 3 mg/kg, detection date day 14)?
Its value is 3.70 IU/mL.

And the “HBsAg content in mice” value (HBsAg [1]; 3 mg/kg, detection date day 18)?
The value was 3.85 IU/mL.

What about the “HBsAg content in mice” value (HBsAg [1]; 3 mg/kg, detection date day 21) of the same compound?
Its value is 3.78 IU/mL.

What about the “HBsAg content in mice” value (HBsAg [1]; 3 mg/kg, detection date day 25) of the same compound?
Its value is 3.76 IU/mL.

What about the “HBsAg content in mice” value (HBsAg [1]; 3 mg/kg, detection date day 28) of the same compound?
The value was 3.96 IU/mL.

What about the “HBsAg content in mice” value (HBsAg [1]; 3 mg/kg, detection date day -1) of the same compound?
The value was 4.54 IU/mL.

What about the “HBsAg content in mice” value (HBsAg [1]; 10 mg/kg, detection date day 4) of the same compound?
Its value is 3.56 IU/mL.

And the “HBsAg content in mice” value (HBsAg [1]; 10 mg/kg, detection date day 7)?
Its value is 3.69 IU/mL.

And the “HBsAg content in mice” value (HBsAg [1]; [5])?
Its value is 3.92 IU/mL.

What about the “HBsAg content in mice” value (HBsAg [1]; [6]) of the same compound?
The value was 3.61 IU/mL.

What about the “HBsAg content in mice” value (HBsAg [1]; [7]) of the same compound?
The value was 3.90 IU/mL.

What about the “HBsAg content in mice” value (HBsAg [1]; [8]) of the same compound?
Its value is 3.75 IU/mL.

And the “HBsAg content in mice” value (HBsAg [1]; [9])?
The value was 3.83 IU/mL.

What about the “HBsAg content in mice” value (HBsAg [1]; [10]) of the same compound?
The value was 3.87 IU/mL.

What about the “HBsAg content in mice” value (HBsAg [1]; [11]) of the same compound?
Its value is 4.51 IU/mL.

And the “HBsAg content in mice” value (HBsAg [1]; 30 mg/kg, detection date day 4)?
The value was 3.38 IU/mL.

And the “HBsAg content in mice” value (HBsAg [1]; 30 mg/kg, detection date day 7)?
The value was 3.44 IU/mL.

What about the “HBsAg content in mice” value (HBsAg [1]; 30 mg/kg, detection date day 11) of the same compound?
The value was 3.64 IU/mL.

And the “HBsAg content in mice” value (HBsAg [1]; 30 mg/kg, detection date day 14)?
The value was 3.40 IU/mL.

And the “HBsAg content in mice” value (HBsAg [1]; 30 mg/kg, detection date day 18)?
The value was 3.55 IU/mL.

What about the “HBsAg content in mice” value (HBsAg [1]; 30 mg/kg, detection date day 21) of the same compound?
The value was 3.46 IU/mL.

What about the “HBsAg content in mice” value (HBsAg [1]; 30 mg/kg, detection date day 25) of the same compound?
Its value is 3.37 IU/mL.

And the “HBsAg content in mice” value (HBsAg [1]; 30 mg/kg, detection date day 28)?
The value was 3.53 IU/mL.

What about the “HBsAg content in mice” value (HBsAg [1]; 30 mg/kg, detection date day -1) of the same compound?
Its value is 4.48 IU/mL.
